Measurements reported in patent publication US20260116910A1, “POLYCYCLIC COMPOUNDS AND METHODS THEREOF” (HEPAITECH (BEIJING) BIOPHARMA TECHNOLOGY CO., LTD., priority 2021, published 2026).

What was measured:
human FXR (NR1H4) = target: T1, human FXR (NR1H4) (Homo sapiens, UniProt Q96RI1); assay: Human FXR (NR1H4) agonist assessment, FXRE-NanoLuc reporter in HEK293T cells; assay type: cell-based; conditions: FXR activation, HEK293T FXRE-NanoLuc reporter, 24 hr; for EC50: read-out: EC50
T1 sequence (Q96RI1 1-476 isoform Q96RI1-1): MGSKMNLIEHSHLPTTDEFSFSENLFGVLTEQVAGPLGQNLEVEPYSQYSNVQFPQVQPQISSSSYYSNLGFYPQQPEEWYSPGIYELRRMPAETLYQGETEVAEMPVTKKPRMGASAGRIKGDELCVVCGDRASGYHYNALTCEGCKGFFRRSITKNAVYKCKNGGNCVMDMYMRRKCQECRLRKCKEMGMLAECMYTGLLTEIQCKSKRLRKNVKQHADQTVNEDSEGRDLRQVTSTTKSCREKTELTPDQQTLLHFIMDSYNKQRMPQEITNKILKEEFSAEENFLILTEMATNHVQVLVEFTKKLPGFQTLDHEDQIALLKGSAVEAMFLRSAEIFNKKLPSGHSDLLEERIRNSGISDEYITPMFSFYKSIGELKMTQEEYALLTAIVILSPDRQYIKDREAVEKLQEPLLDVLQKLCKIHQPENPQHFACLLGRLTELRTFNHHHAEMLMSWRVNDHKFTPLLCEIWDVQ
Procedure, shortened: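 Read-out was NanoLuc luminescence in culture medium, measured 5 min after adding coelenterazine. Cells were HEK293T stably carrying human FXR and an FXRE reporter, exposed to compound for 24 hr at 37 °C. Vehicle was 0.01% DMSO. EC50 was obtained from sigmoid fits of gradient dilutions.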

MRGPRX4 = MRGPRX4 (Homo sapiens, UniProt Q96LA9); assay: MRGPRX4 activation, Fluo-8 Ca2+ FLIPR assay in HEK293T cells stably expressing MRGPRX4; assay type: cell-based; conditions: for EC50: MRGPRX4 activation, Ca2+ fluorescence, no activation in tested range reported as III, read-out: Activity (EC50 μM)
Procedure, shortened: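 Response measured as dF/F0: 30 s baseline, then 150 s after compound addition on FLIPR Tetra, in HHBS after 40-60 min room-temperature loading with 2 μM Fluo-8 AM.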

MRGPRX4, sequence (Q96LA9 whole entry): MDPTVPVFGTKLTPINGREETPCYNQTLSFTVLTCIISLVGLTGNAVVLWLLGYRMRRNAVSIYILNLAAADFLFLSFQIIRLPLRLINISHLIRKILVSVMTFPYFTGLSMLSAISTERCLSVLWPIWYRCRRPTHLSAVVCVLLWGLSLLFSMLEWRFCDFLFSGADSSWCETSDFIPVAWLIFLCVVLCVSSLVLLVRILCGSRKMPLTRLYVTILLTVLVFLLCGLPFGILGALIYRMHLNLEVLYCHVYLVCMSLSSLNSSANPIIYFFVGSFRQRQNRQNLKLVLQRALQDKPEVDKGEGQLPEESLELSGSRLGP

Row | Structure (SMILES) | Efficacy (maximum measured induction of NanoLuc, normalized to CDCA set as 100%) (human FXR (NR1H4)) | EC50 (human FXR (NR1H4)) | MRGPRX4 activation, fluorescence change (dF/F0), Average (MRGPRX4; Conc. (Log[M]) −4) | MRGPRX4 activation, fluorescence change (dF/F0), Average (MRGPRX4; Conc. (Log[M]) −4.5) | MRGPRX4 activation, fluorescence change (dF/F0), Average (MRGPRX4; Conc. (Log[M]) −5) | MRGPRX4 activation, fluorescence change (dF/F0), Average (MRGPRX4; Conc. (Log[M]) −5.5) | MRGPRX4 activation, fluorescence change (dF/F0), Average (MRGPRX4; Conc. (Log[M]) −6) | MRGPRX4 activation, fluorescence change (dF/F0), Average (MRGPRX4; Conc. (Log[M]) −7) | MRGPRX4 activation, fluorescence change (dF/F0), Average (MRGPRX4; Conc. (Log[M]) −8) | MRGPRX4 activation, fluorescence change (dF/F0), Average (MRGPRX4; Conc. (Log[M]) −9) | EC50 (MRGPRX4)
1 | CC[C@H]1[C@@H](OC(=O)c2cccc(I)c2)[C@H]2[C@@H]3[C@@H](O)C=C([C@H](C)CCC(=O)OC)[C@@]3(C)CC[C@@H]2[C@@]2(C)CCCC[C@@H]12 [3-3] | C (100%<efficacy <=300%) | > 10 µM | 0.041 | 0.052 | −0.045 | −0.013 | −0.015 | −0.015 | −0.031 | −0.014 | > 100 µM
2 | CC[C@H]1[C@@H](O)[C@@H]2[C@H](CC[C@]3(C)[C@@H]([C@H](C)CCC(=O)NS(=O)(=O)C(C)(C)C)CC[C@@H]23)[C@@]2(C)CCCC[C@@H]12 [4-1] | B (300%<efficacy <=400%) | < 1 µM | 0.057 | 0.035 | −0.037 | −0.013 | 0.002 | 0.009 | 0.004 | 0.005 | > 100 µM
3 | CC[C@H]1[C@@H](O)[C@@H]2[C@H](CC[C@]3(C)[C@@H]([C@H](C)CCC(=O)NS(=O)(=O)CC)CC[C@@H]23)[C@@]2(C)CCCC[C@@H]12 [4-2] | B (300%<efficacy <=400%) | < 1 µM | 0.113 | −0.013 | −0.006 | 0.015 | −0.006 | 0.009 | 0.009 | 0.002 | > 100 µM
4 | CC[C@H]1[C@@H](O)[C@@H]2[C@H](CC[C@]3(C)[C@@H]([C@H](C)CC(=O)NS(=O)(=O)C(C)(C)C)CC[C@@H]23)[C@@]2(C)CCCC[C@@H]12 [4-3] | B (300%<efficacy <=400%) | 1 to 10 µM |  |  |  |  |  |  |  |  | > 100 µM
5 | CC[C@H]1[C@@H](O)[C@@H]2[C@H](CC[C@]3(C)[C@@H]([C@H](C)CCNC(=O)NS(=O)(=O)c4ccc(C(C)(C)C)cc4)CC[C@@H]23)[C@@]2(C)CCCC[C@@H]12 [5-1] | B (300%<efficacy <=400%) | < 1 µM |  |  |  |  |  |  |  |  | > 100 µM
6 | CC[C@H]1[C@@H](O)[C@@H]2[C@H](CC[C@]3(C)[C@@H]([C@H](C)CCNC(=O)NS(=O)(=O)c4ccc(C(C)(C)CO)cc4)CC[C@@H]23)[C@@]2(C)CCCC[C@@H]12 [5-2] | A (efficacy >400%) | < 1 µM | 0.087 | 0.030 | 0.023 | 0.027 | 0.023 | 0.020 |  |  | > 100 µM
7 | CC[C@H]1[C@@H](O)[C@@H]2[C@H](CC[C@]3(C)[C@@H]([C@H](C)CCNC(=O)NS(=O)(=O)C4CCCCC4)CC[C@@H]23)[C@@]2(C)CCCC[C@@H]12 [5-3] | C (100%<efficacy <=300%) | 1 to 10 µM | 0.297 | 0.031 | 0.001 | −0.012 | −0.033 | −0.011 | −0.012 | 0.002 | > 100 µM
8 | CC[C@H]1[C@@H](O)[C@@H]2[C@H](CC[C@]3(C)[C@@H]([C@H](C)CCNC(=O)NS(=O)(=O)c4ccc5c(c4)CCN5C(C)=O)CC[C@@H]23)[C@@]2(C)CCCC[C@@H]12 [5-4] | B (300%<efficacy <=400%) | < 1 µM | 0.097 | 0.017 | 0.020 | 0.020 | 0.013 | 0.017 |  |  | > 100 µM
9 | CC[C@H]1[C@@H](O)[C@@H]2[C@H](CC[C@]3(C)[C@@H]([C@H](C)CCNC(=O)NS(=O)(=O)C4CCC(C)(C)CC4)CC[C@@H]23)[C@@]2(C)CCCC[C@@H]12 [5-5] | C (100%<efficacy <=300%) | < 1 µM | 0.083 | 0.033 | 0.017 | 0.020 | 0.027 | 0.060 |  |  | > 100 µM
10 | CC[C@H]1[C@@H](O)[C@@H]2[C@H](CC[C@]3(C)[C@@H]([C@H](C)CCNC(=O)NS(=O)(=O)c4ccc5c(c4)OCO5)CC[C@@H]23)[C@@]2(C)CCCC[C@@H]12 [5-6] | C (100%<efficacy <=300%) | < 1 µM | 0.077 | 0.033 | 0.010 | 0.017 | 0.013 | 0.010 |  |  | > 100 µM
